{
  "source": "patent US20210238173A1",
  "about": "“MITOGEN-ACTIVATED PROTEIN KINASE KINASE 7 INHIBITORS” (Yeda Research and Development Co. Ltd., priority 2018, published 2021)",
  "test_system": "primary mouse B-cells",
  "experiment": "Primary B-cell activation (CD86+ FACS) in response to LPS",
  "assay_type": "cell-based",
  "details": "Mus musculus, B-cell, 10 μM, 2 hours pre-incubation",
  "description": "Compounds Block Activation of Primary Mouse B-Cells:\nJNK is known to mediate activation of B-cells in response to lypopolysacharide (LPS) through the TLR4 signaling pathway as well as in response to B-cell receptor activation (stimulated e.g. with an anti-IgM antibody). Primary B-cells were isolated from the spleen of mice and assessed for their B-cell activation, via FACS analysis of CD86+ expression, in response to LPS in the presence or absence of the covalent MKK7 enzyme inhibitors presented herein, as well as a positive control JNK inhibitor, JNK-IN-8.\nAt 10 μM and 2 hours pre-incubation before stimulation, GO80 was able to inhibit 60% of the CD86+ response.",
  "data": [
    {"smiles": "C=CC(=O)Nc1cccc(-c2n[nH]c3cc(C)ccc23)c1", "note": "[GO80]", "values": [
      {"measurement": "inhibition at 10 µM", "value": 60, "unit": "%"}
    ]}
  ]
}
